The test system of the experiment is Mat-LyLu cells. Put plainly: Transverse migration assay (Transwell). It is filed as cell-based, rat. As for the experimental part:
This assay was used to represent the ability of cells to migrate as they intra/extravasate. […] The insert 602 has a migration filter membrane 605 in its base with 8 μm pores 606 extending therethrough.
Cells 607 were plated at a density of 2×10^4/ml on the filter membrane 605 and placed under a growth medium 608 containing 1% foetal bovine serum (FBS). A chemotactic gradient was created across the filter membrane 605 by placing growth medium 609 containing 10% FBS in the lower section 604 of the chamber.
Cells were allowed to migrate across the filter membrane 605 over a period of 24 hours, cells migrating and adhering to the underside of the filter membrane 605.
At the end of each assay, non-migrated cells were removed from the upper surface of the insert 602 with two different swabs
The number of cells migrating to the underside of the insert 602 was determined using crystal violet staining. Migrated cells were fixed for 15 minutes with ice-cold methanol. Then 0.5% crystal violet (in 25% methanol) was added for 15 minutes. The inserts were swabbed again and then washed in water and allowed to dry. Cells were then counted using twelve separate fields of view per insert (×200 magnification).
With the exception of single cell adhesion tests, which are discussed in the following paragraph, experiments were carried out under either; • (i) normal normoxic conditions ([…], 5% carbon dioxide), or • (ii) following 24 hours hypoxic pre-treatment (2% O2, 5% CO2, 93% N2) continued during the assays.

Here are results for one molecule from patent US12534444B2, “Treatment of cancer/inhibition of metastasis” (Celex Oncology Innovations Limited, priority 2010, dated 2026).

Molecules are shown by their SMILES.

With `COc1ccccc1OCC(O)CN1CCN(CC(=O)Nc2c(C)cccc2C)CC1` (stereo not shown) [ranolazine], the “TRANSVERSE MIGRATION” value (Hypoxia, 20 μM) is “reduced the transverse migration of the cells in a statistically significant way”; the “TRANSVERSE MIGRATION” value (Hypoxia, 20 μM, listed as RANOLAZINE) is “decreased”; the “TRANSVERSE MIGRATION” value (Hypoxia, 50 μM) is “reduced the transverse migration of the cells in a statistically significant way”; the “TRANSVERSE MIGRATION” value (Hypoxia, 50 μM, listed as RANOLAZINE) is “decreased”; the “TRANSVERSE MIGRATION” value (Hypoxia, 300 μM) was “reduced the transverse migration of the cells in a statistically significant way”; the “TRANSVERSE MIGRATION” value (Hypoxia, 300 μM, listed as RANOLAZINE) was “decreased”. In addition, the “TRANSVERSE MIGRATION” value is “reduced the transverse migration” (Normoxia, 20 μM); “decreased” (Normoxia, 20 μM, listed as RANOLAZINE); “reduced the transverse migration” (Normoxia, 50 μM); “decreased” (Normoxia, 50 μM, listed as RANOLAZINE); “not statistically significant” (Normoxia, 300 μM); “no effect” (Normoxia, 300 μM, listed as RANOLAZINE). Moreover, the “potency on transverse migration compared with positive control TTX” value (higher concentrations tested, TTX 1 μmol) was “more potent than the toxin (TTX)”.
